The assay has as its target T1, Gag-Pol polyprotein [588-1027]/[588-1147] (Human immunodeficiency virus 1, UniProt P04585).
T1 construct: 588-1027; 588-1147
The assay is described as follows: HIV-1 RT Assay. The following applies: pH 7.9. The text has this:
The IC50 of reverse transcriptase is the concentration that inhibits 50% of recombinant HIV-1 RT RNA-directed DNA polymerase activity in vitro.

As a reminder, the IC50 is the concentration that inhibits the measured activity by half. A higher IC50 goes with weaker potency in that assay.

SMILES strings stand for the structures.

In the case of `CCOC(=O)N1CCC(=C(c2cc(Cl)c(O)c(C(=O)O)c2)c2cc(Cl)c(O)c(C(=O)O)c2)CC1` [5-[(3-carboxy-5-chloro-4-hydroxyphenyl)[1-(ethoxycarbonyl)piperidin-4-ylidene]methyl]-3-chloro-2-hydroxybenzoic acid], the IC50 was > 100 µM.
Under `CCOC(=O)N1CCC(C(c2cc(C)c(OC)c(C(=O)OC)c2)c2cc(C)c(OC)c(C(=O)OC)c2)CC1` [Ethyl 4 - (4,4 - dimethoxy - 3,3 - di(methoxycarbonyl)-5,5-dimethyl-diphenylmethyl)piperidinecarboxylate] stands > 100 µM.
Under `CCOC(=O)N1CCC(=C(c2cc(Cl)c(OC)c(C(=O)O)c2)c2cc(Cl)c(OC)c(C(=O)O)c2)CC1` [Ethyl 4-(3,3-dicarboxy-5,5-dichloro-4,4-dimethoxydiphenylmethylene)piperidinecarboxylate] stands > 100 µM; under `CCOC(=O)N1CCC(=C(c2cc(Cl)c(OC)c(C(=O)OC)c2)c2cc(Cl)c(OC)c(C(=O)OC)c2)CC1` [Ethyl 4-(3,3-dichloro-4,4-dimethoxy-5,5-di(methoxycarbonyl)-diphenylmethylene)piperidinecarboxylate], > 100 µM; under `COC(=O)c1cc(C(c2cc(C)c(OC)c(C(=O)OC)c2)C2CCN(C(=O)OC)CC2)cc(C)c1OC` [Methyl 4 - (4,4 - dimethoxy - 3,3 - di(methoxycarbonyl)-5,5-dimethyl-diphenylmethyl)piperidinecarboxylate], > 100 µM.
Then `COC(=O)N1CCC(=C(c2cc(Cl)c(OC)c(C(=O)O)c2)c2cc(Cl)c(OC)c(C(=O)O)c2)CC1` [Methyl 4-(3,3-dicarboxy-5,5-dichloro-4,4-dimethoxydiphenylmethylene)piperidinecarboxylate], with > 100 µM; and `COC(=O)c1cc(C(=C2CCN(C(=O)OC)CC2)c2cc(C)c(OC)c(C(=O)OC)c2)cc(C)c1OC` [Methyl 4-(4,4-dimethoxy-3,3 - di(methoxycarbonyl) -5,5 - dimethyl - diphenylmethylene)piperidinecarboxylate], with > 100 µM.
`COC(=O)CCCC(=O)N1CCC(=C(c2cc(Cl)c(OC)c(C(=O)OC)c2)c2cc(Cl)c(OC)c(C(=O)OC)c2)CC1` [Methyl 5-[4-{3,3-dichloro-4,4-dimethoxy-5,5-di(methoxycarbonyl)diphenylmethylene}piperidyl]-5-oxopentanoate]: the IC50 is > 100 µM.
Then `COC(=O)CCCC(=O)N1CCC(=C(c2cc(C)c(OC)c(C(=O)OC)c2)c2cc(C)c(OC)c(C(=O)OC)c2)CC1` [Methyl 5-[4-{4,4-dimethoxy-4,4-bis(methoxycarbonyl)-5,5-(dimethyl)diphenylmethylene}piperidyl]-5-oxopentanoate], with > 100 µM; and `CCOC(=O)N1CCC(=C(c2cc(Cl)c3c(c2)C(=O)OC(C)(C)O3)c2cc(Cl)c3c(c2)C(=O)OC(C)(C)O3)CC1` [ethyl 4-[bis(8-chloro-2,2-dimethyl-4-oxo-2,4-dihydro-1,3-benzodioxin-6-yl)methylidene]piperidine-1-carboxylate], with > 100 µM; and `CCOC(=O)N1CCC(=C(c2cc(C)c(OC)c(C(=O)OC)c2)c2cc(C)c(OC)c(C(=O)OC)c2)CC1` [ethyl 4-{bis[4-methoxy-3-(methoxycarbonyl)-5-methylphenyl]methylidene}piperidine-1-carboxylate], with > 100 µM.
Under `COC(=O)c1cc(C(=C2CCN(C(=O)OC)CC2)c2cc(Cl)c(OC)c(C(=O)OC)c2)cc(Cl)c1OC` [methyl 4-{bis[3-chloro-4-methoxy-5-(methoxycarbonyl)phenyl]methylidene}piperidine-1-carboxylate] stands > 100 µM.
Then `COC(=O)N1CCC(=C2c3ccccc3C=Cc3ccccc32)CC1` [methyl 4-{tricyclo[9.4.0.0^{3,8}]pentadeca-1(11),3,5,7,9,12,14-heptaen-2-ylidene}piperidine-1-carboxylate], with > 100 µM; and `COC(=O)N1CCC(=C2c3ccccc3CCc3ccccc32)CC1` [methyl 4-{tricyclo[9.4.0.0^{3,8}]pentadeca-1(11),3,5,7,12,14-hexaen-2-ylidene}piperidine-1-carboxylate], with > 100 µM.

Source of the values: BindingDB's records for doi:10.1016/s0968-0896(02)00095-0 (Purdue University, 2002).
